12 molecules from ChEMBL document CHEMBL5226319, “Small molecule approaches to treat autoimmune and inflammatory diseases (Part III): Targeting cytokines and cytokine receptor complexes” (Bioorg Med Chem Lett, 2021) can be followed below.

A word on the Kd: it is the equilibrium constant for the complex coming apart. Broadly, the EC50 is the midpoint of the concentration-response curve. As usually defined, the IC50 is the concentration at which inhibition is half-maximal. Read a high IC50 as weaker potency.

Assay [1] concerns the target T1, Interleukin-4 (Homo sapiens, UniProt P05112).
T1 sequence (P05112 whole entry): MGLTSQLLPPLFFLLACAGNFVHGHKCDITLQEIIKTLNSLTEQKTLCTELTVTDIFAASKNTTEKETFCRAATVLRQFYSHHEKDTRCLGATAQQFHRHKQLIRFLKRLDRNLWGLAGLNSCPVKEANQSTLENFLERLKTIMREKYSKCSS
As to the kind of experiment: Inhibition of IL-4 (unknown origin) assessed as dissociation constant by SPR analysis. In general terms: In SPR one partner is held on a chip, and binding of the other changes the refractive index at the surface.

Assay [2] has as its target T1, Interleukin-4. Kind of assay: Inhibition of IL-4 (unknown origin) in human THP-1 cells assessed as inhibition of STAT6 phosphorylation by HEK-Blue assay. The assay is classed as cell-based.
The next assay has as its target T2, Interleukin-18 (Homo sapiens, UniProt Q14116).
T2 sequence (Q14116 whole entry): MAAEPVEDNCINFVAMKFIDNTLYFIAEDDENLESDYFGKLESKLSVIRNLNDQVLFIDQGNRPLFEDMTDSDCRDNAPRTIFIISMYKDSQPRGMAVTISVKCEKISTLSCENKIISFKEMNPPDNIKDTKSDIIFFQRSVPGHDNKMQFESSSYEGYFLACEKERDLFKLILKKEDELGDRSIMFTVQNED
As to the kind of experiment: Inhibition of human IL-18 expressed in Escherichia coli BL21(DE3) cells incubated for 18 hrs.

The target in assay [3] is T3, Interleukin-1 receptor type 1 (Homo sapiens, UniProt P14778).
T3 sequence (P14778 whole entry): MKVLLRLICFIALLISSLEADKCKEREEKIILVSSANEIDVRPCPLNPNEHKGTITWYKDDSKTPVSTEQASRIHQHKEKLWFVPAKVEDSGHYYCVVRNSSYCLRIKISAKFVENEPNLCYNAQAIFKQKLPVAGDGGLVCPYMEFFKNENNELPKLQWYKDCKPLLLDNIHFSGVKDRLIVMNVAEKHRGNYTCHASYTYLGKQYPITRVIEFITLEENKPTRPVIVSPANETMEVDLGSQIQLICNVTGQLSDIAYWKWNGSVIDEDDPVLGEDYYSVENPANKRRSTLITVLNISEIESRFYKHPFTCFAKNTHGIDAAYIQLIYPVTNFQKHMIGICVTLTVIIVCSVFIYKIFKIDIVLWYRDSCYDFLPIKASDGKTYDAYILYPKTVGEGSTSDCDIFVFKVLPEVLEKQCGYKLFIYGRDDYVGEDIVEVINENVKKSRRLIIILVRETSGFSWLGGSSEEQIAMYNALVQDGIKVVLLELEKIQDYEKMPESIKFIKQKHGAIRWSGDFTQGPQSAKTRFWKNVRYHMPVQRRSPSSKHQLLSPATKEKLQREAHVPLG
Kind of assay: Inhibition of human IL1-R1 assessed as dissociation constant incubated for 5 mins by SPR analysis.

Assay [4] is described as follows: Inhibition of OSMR/gp130 (unknown origin) by SPR analysis. Set-up: species or system Homo sapiens.
The nature of assay [5]: Inhibition of IL-6/gp130 (unknown origin) by SPR analysis. Set-up: species or system Homo sapiens.
Assay [6] is described as follows: Inhibition of human CXCL1 protein secretion in IL-36 gamma-stimulated HaCaT cells. The assay is classed as cell-based.
The species named for another assay is Homo sapiens. Kind of assay: (§1) Binding affinity to gp130 (unknown origin) assessed as fold increase.
The nature of assay [7]: as §1. Set-up: species or system Homo sapiens.
The next assay deals with T4, Interleukin-33 (Homo sapiens, UniProt O95760).
T4 sequence (O95760 whole entry): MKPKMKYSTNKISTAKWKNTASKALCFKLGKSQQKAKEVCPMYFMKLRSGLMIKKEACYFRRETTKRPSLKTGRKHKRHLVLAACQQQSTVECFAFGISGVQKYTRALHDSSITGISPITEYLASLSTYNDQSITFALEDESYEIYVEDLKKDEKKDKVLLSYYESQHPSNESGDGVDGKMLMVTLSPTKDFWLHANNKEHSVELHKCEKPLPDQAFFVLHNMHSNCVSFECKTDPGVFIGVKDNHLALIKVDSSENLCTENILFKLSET
Kind of assay: Inhibition of human IL-33 incubated for 1 hrs by AlphaLISA assay. (In Alpha technology, singlet oxygen from a donor bead excites a nearby acceptor bead.)

The nature of assay [8]: Binding affinity to gp130 (unknown origin) assessed as dissociation constant by SPR analysis. Also noted: species or system Homo sapiens.
The target in assay [9] is T5, Interleukin-2 receptor subunit alpha (Homo sapiens, UniProt P01589).
T5 sequence (P01589 whole entry): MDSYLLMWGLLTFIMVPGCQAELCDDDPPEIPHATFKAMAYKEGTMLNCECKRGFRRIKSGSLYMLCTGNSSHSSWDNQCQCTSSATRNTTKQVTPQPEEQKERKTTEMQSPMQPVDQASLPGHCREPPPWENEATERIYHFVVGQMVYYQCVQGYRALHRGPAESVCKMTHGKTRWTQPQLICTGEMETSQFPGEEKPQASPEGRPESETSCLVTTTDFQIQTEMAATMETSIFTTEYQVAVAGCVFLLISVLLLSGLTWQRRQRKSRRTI
As to the kind of experiment: Inhibition of IL-2R alpha (unknown origin).

Consider `N#Cc1c(-c2ccc(O)c(O)c2)cc(-c2ccc(F)cc2)nc1N`, for which the Kd on Interleukin-4 [1] worked out at 1.8 µM. The EC50 on Interleukin-4 [2] is 3.1 µM. As to `N#Cc1ccc(NC(=O)Nc2ccc(Oc3ccc(NC(=O)Nc4ccc(C#N)cc4)cc3)cc2)cc1`, the concentration for a half-maximal effect (EC50) at Interleukin-18 was found to be 0.25 µM.

With `NCCc1c(-c2ccccc2)n(-c2ccccc2)c2ccccc12`, in [3], the Kd is 316 µM. On to `Brc1ccc(Nc2nc(-c3ccccc3)cs2)cc1`, for which the Kd is 5.7 µM in [4] and 2.9 µM in assay [5]. Regarding `COC(c1ccccc1)(c1ccccc1)[C@H](Oc1nc(C)cc(-c2ccc(C)c(N)c2)n1)C(=O)O`, the IC50 in assay [6] is 0.031 µM. In the case of `CCCCc1ccc(O)c(Cn2cc(CC(O)COC(=O)c3ccccc3)c3ccccc32)c1O` (stereo unspecified), the fold change (FC) in the assay listed under Homo sapiens was 5. In addition, in assay [7], the Kd amounted to 29 µM. With `CCCCc1ccc(O)c(CN2c3ccccc3[C@]3(O)C[C@@H](COC(=O)c4ccccc4)O[C@H]23)c1O`, the fold change (FC) in the assay listed under Homo sapiens turned out to be 5. In addition, the Kd in assay [7] was found to be 36.9 µM.

`COc1ccc([C@@H]2CCCN2Cc2ccc(-c3ccccc3[N+](=O)[O-])o2)cc1` gave an IC50 at Interleukin-33 of 42 µM. Consider `CCCCc1ccc(OC)c(CN2c3ccccc3[C@]3(O)C[C@@H](COC(=O)c4ccccc4)O[C@H]23)c1OC`, for which the fold change (FC) in the assay filed under Homo sapiens worked out at 5. In the case of `CCCCC1=C(C)C(=O)[C@@](C)(CN2c3ccccc3[C@]3(O)CCO[C@H]23)C1=O`, the Kd in assay [8] is 288 µM. `COc1ccc([C@H]2CCCN2Cc2ccc(-c3ccccc3[N+](=O)[O-])o2)cc1` had an IC50 at Interleukin-33 of 43 µM. In [9], `COC(=O)[C@H](Cc1ccc(C#Cc2ccccc2)cc1)NC(=O)C[C@H]1CCCN(C(=N)N)C1` displayed an IC50 of 3 µM.
